Data on six molecules can be found in patent publication US10231453B2, “5-substituted imidazole derivatives” (BAYER CROPSCIENCE AKTIENGESELLSCHAFT, priority 2015, dated 2019).

One data set has as its system Fusarium culmorum. Kind of data set: In vivo preventive Fusarium culmorum test (wheat), Example L. Conditions: 120 h, 500 ppm of active ingredient, preventive spray, evaluated 5 days after inoculation, read-out: efficacy. Here is the method:
After the spray coating has been dried, the plants are slightly injured by using a sandblast and afterwards they are sprayed with a conidia suspension of Fusarium culmorum.
The test is evaluated 5 days after the inoculation.

A short description of data set [1]: Measurement of LogP values by HPLC on reversed phase columns (EEC directive 79/831 Annex V.A8). The class given is physicochemical. Conditions: acidic range, Table 1. The method, then: Measurement of Log P values was performed as outlined above.
Another data set relates to Sphaerotheca fuliginea. Kind of data set: In vivo preventive test on Sphaerotheca fuliginea (powdery mildew on cucurbits), Examples F and R6. To be noted: Podosphaera fuliginea, 360 h, preventive spray, evaluated 15 days after inoculation.
A further data set relates to Uromyces appendiculatus. Kind of data set: In vivo preventive test on Uromyces appendiculatus (bean rust), Examples G and R7. To be noted: 264 h, preventive spray, evaluated 11 days after inoculation.
Another data set relates to Pyricularia oryzae. Kind of data set: whole plant or invertebrate. The class given is in vivo. Conditions: 192 h, read-out: efficacy.
For a further data set, the system named is Alternaria brassicae. In words: In vivo preventive test on Alternaria brassicae (leaf spot on radish), Examples A and R1. To be noted: Alternaria brassicae, 144 h.
Another data set relates to Puccinia recondita. In words: In vivo preventive test on Puccinia recondita (brown rust on wheat), Examples C and R3. Conditions: Puccinia recondita, 264 h, preventive spray, evaluated 11 days after inoculation.
Data set [2] has as its system Blumeria graminis fsp. hordei. Kind of data set: In vivo preventive Blumeria test (barley), Example K. To be noted: 168 h, 500 ppm of active ingredient, preventive spray, evaluated 7 days after inoculation, read-out: efficacy. An excerpt: After the spray coating has been dried, the plants are dusted with spores of Blumeria graminis fsp. hordei.
The subject of a further data set is Septoria tritici. In words: In vivo preventive test on Septoria tritici (leaf spot on wheat), Examples E, Q3 and R5. Conditions: Zymoseptoria tritici, 576 h, preventive spray, evaluated 24 days after inoculation.
The next data set deals with Leptosphaeria nodorum. Kind of data set: In vivo preventive Leptosphaeria nodorum test (wheat), Example N. Conditions: Parastagonospora nodorum, 192 h, 500 ppm of active ingredient, preventive spray, evaluated 8 days after inoculation, read-out: efficacy. An excerpt:
After the spray coating has been dried, the plants are sprayed with a spore suspension of Leptosphaeria nodorum.

The test system of a further data set is Fusarium graminearum. Kind of data set: whole plant or invertebrate. Format: in vivo. Conditions: in Hordeum vulgare, 120 h, read-out: efficacy.
The test system of data set [3] is Fusarium nivale (var. majus). Kind of data set: In vivo preventive Fusarium nivale (var. majus) test (wheat), Example O. To be noted: Microdochium nivale, 120 h, 500 ppm of active ingredient, preventive spray, evaluated 5 days after inoculation, read-out: efficacy. An excerpt: After the spray coating has been dried, the plants are slightly injured by using a sandblast and afterwards they are sprayed with a conidia suspension of Fusarium nivale (var. majus).

The subject of another data set is Botrytis cinerea. In words: In vivo preventive test on Botrytis cinerea (grey mould) on gherkin, Examples B, Q1 and R2. To be noted: Botrytis cinerea; for pest or weed control at 100 ppm: Example R2, rate of application 100 ppm.
Another data set has as its system Pyrenophora teres. Kind of data set: In vivo preventive test on Pyrenophora teres (net blotch on barley), Examples D, Q2 and R4. Conditions: Pyrenophora teres, 336 h; for pest or weed control at 100 ppm: Example R4, rate of application 100 ppm.
A further data set concerns Alternaria solani. Kind of data set: In vivo preventive Alternaria test (tomatoes), Example H. Conditions: 72 h, 100 ppm of active ingredient, preventive spray, evaluated 3 days after inoculation, read-out: efficacy.
For another data set, the system named is Phakopsora pachyrhizi. Kind of data set: In vivo preventive Phakopsora test (soybeans), Example I. Conditions: 168 h, 100 ppm of active ingredient, preventive spray, evaluated 7 days after inoculation, read-out: efficacy.
A further data set concerns Venturia inaequalis. In words: In vivo preventive Venturia test (apples), Example J. To be noted: 240 h, read-out: efficacy.
The mark [4] stands for this setting: method [a]: LC-UV, 0.1% formic acid in water and acetonitrile as eluent.
Setting [5] is: 500 ppm of active ingredient, gherkin, read-out: efficacy.
Where [6] appears, read: 500 ppm of active ingredient, bean, read-out: efficacy.
The mark [7] stands for this setting: 500 ppm of active ingredient, preventive spray, evaluated 6 days after inoculation, read-out: efficacy.
Where [8] appears, read: 500 ppm of active ingredient, wheat, read-out: efficacy.
The mark [9] stands for this setting: 500 ppm of active ingredient, preventive spray, evaluated 4 to 5 days after inoculation, read-out: efficacy.
The mark [10] stands for this setting: 500 ppm of active ingredient, preventive spray, evaluated 14 days after inoculation, read-out: efficacy.
The mark [11] stands for this setting: Example R6, gherkin, read-out: Efficacy in %.
[12] abbreviates: Example R6, gherkin, 500 ppm, read-out: Efficacy in %.
The mark [13] stands for this setting: Example R7, bean, read-out: Efficacy in %.
Setting [14] is: Example R7, bean, 500 ppm, read-out: Efficacy in %.
Setting [15] is: Example R3, wheat, read-out: Efficacy in %.
The mark [16] stands for this setting: Example R3, wheat, 500 ppm, read-out: Efficacy in %.
Setting [17] is: Example R5, wheat, read-out: Efficacy in %.
[18] abbreviates: Example R5, wheat, 500 ppm, read-out: Efficacy in %.
Where [19] appears, read: Example R2, rate of application 500 ppm, read-out: Efficacy in %.
The mark [20] stands for this setting: Example R4, rate of application 500 ppm, read-out: Efficacy in %.

Where two headings read alike, the source gives them in different places.

Description for Venturia inaequalis: After the spray coating has dried on, the plants are inoculated with an aqueous conidia suspension of the causal agent of apple scab (Venturia inaequalis) and then remain for 1 day in an incubation cabinet at approximately 20° C. and a relative atmospheric humidity of 100%.
The plants are then placed in a greenhouse at approximately 21° C. and a relative atmospheric humidity of approximately 90%.
The test is evaluated 10 days after the inoculation.

In general, chromatographic logP refers to a lipophilicity value derived from retention on a column. The low end stands for a more hydrophilic compound, the high end for a more lipophilic compound. For `OC(Cc1ccccc1Cl)(Cn1cncc1Cl)C1(Cl)CC1` (stereo not drawn) [Example I-02], the pest or weed control at 500 ppm is 70 to 79% in the data set on Fusarium culmorum; 90 to 100% in the data set on Sphaerotheca fuliginea (setting [5]); 90 to 100% in the data set on Uromyces appendiculatus (setting [6]); 70 to 79% with Pyricularia oryzae; 90 to 100% with Alternaria brassicae (setting [7]); 80 to 89% in the data set with Puccinia recondita (setting [8]). In addition, the pest or weed control at 500 ppm in data set [2] was in the range of 90 to 100%; in the data set with Septoria tritici (setting [8]), 90 to 100%; in the data set on Leptosphaeria nodorum, 90 to 100%; with Fusarium graminearum, 80 to 89%; in [3], 90 to 100%; with Botrytis cinerea (setting [9]), 90 to 100%. In addition, the pest or weed control at 500 ppm in the data set with Pyrenophora teres (setting [10]) fell in the range of 90 to 100%. Further, the chromatographic logP came to 2.32 in data set [1] (setting [4]); 2 in data set [1] (method [c]: LC-UV, 0.1% phosphoric acid and acetonitrile as eluent).

On to `N#Cc1cncn1CC(O)(Cc1ccccc1F)C1(Cl)CC1` (stereo not drawn) [Example I-34, 1-[2-(1-chlorocyclopropyl)-3-(2-fluorophenyl)-2-hydroxypropyl]-1H-imidazole-5-carbonitrile], for which the pest or weed control at 500 ppm with Fusarium culmorum was 90 to 100%; in the data set on Sphaerotheca fuliginea (setting [5]), 90 to 100%; in the data set on Sphaerotheca fuliginea (setting [12]), 100%; in the data set with Uromyces appendiculatus (setting [6]), 90 to 100%; in the data set with Uromyces appendiculatus (setting [14]), 100%; with Alternaria brassicae (setting [7]), 90 to 100%. Besides, the pest or weed control at 500 ppm in the data set with Alternaria brassicae (Example R1, rate of application 500 ppm, read-out: Efficacy in %) was 92%; in the data set with Puccinia recondita (setting [8]), 90 to 100%; in the data set with Puccinia recondita (setting [16]) it was 100%; in data set [2] it was 90 to 100%; in the data set with Septoria tritici (setting [8]), 90 to 100%; with Septoria tritici (setting [18]), 100%. The pest or weed control at 500 ppm was 90 to 100% with Leptosphaeria nodorum; 90 to 100% in the data set with Fusarium graminearum; 90 to 100% in data set [3]; 90 to 100% with Botrytis cinerea (setting [9]); 100% with Botrytis cinerea (setting [19]); 90 to 100% with Pyrenophora teres (setting [10]). Moreover, the pest or weed control at 500 ppm with Pyrenophora teres (setting [20]) came to 98%. In addition, the chromatographic logP in [1] (setting [4]) came to 2.64. Moreover, the pest or weed control at 100 ppm with Sphaerotheca fuliginea (setting [11]) is 100%; in the data set with Uromyces appendiculatus (setting [13]), 100%; with Alternaria brassicae (Example R1, rate of application 100 ppm, read-out: Efficacy in %) it was 58%; with Alternaria solani, 90 to 100%; in the data set on Puccinia recondita (setting [15]) it was 94%; in the data set on Septoria tritici (setting [17]), 100%. The pest or weed control at 100 ppm in the data set on Phakopsora pachyrhizi was 90 to 100%; in the data set on Venturia inaequalis it was 90 to 100%; in the data set on Botrytis cinerea (read-out: Efficacy in %), 94%; in the data set with Pyrenophora teres (read-out: Efficacy in %), 83%.

As for `C#Cc1cncn1CC(O)(Cc1ccccc1F)C1(Cl)CC1` (stereo not drawn) [Example I-36], the pest or weed control at 500 ppm in the data set on Fusarium culmorum is 80 to 89%; in the data set on Sphaerotheca fuliginea (setting [5]) it was 90 to 100%; in the data set with Sphaerotheca fuliginea (setting [12]), 100%; in the data set on Uromyces appendiculatus (setting [6]), 90 to 100%; in the data set on Uromyces appendiculatus (setting [14]) it was 100%; with Pyricularia oryzae, 90 to 100%. The pest or weed control at 500 ppm in the data set with Puccinia recondita (setting [8]) is 90 to 100%; in the data set with Puccinia recondita (setting [16]) it was 94%; in data set [2] it was 90 to 100%; in the data set on Septoria tritici (setting [8]), 90 to 100%; in the data set with Septoria tritici (setting [18]), 75%; in the data set with Leptosphaeria nodorum, 80 to 89%. The pest or weed control at 500 ppm is 90 to 100% in data set [3]; 90 to 100% in the data set with Botrytis cinerea (setting [9]); 100% with Botrytis cinerea (setting [19]); 90 to 100% in the data set on Pyrenophora teres (setting [10]); 93% in the data set on Pyrenophora teres (setting [20]). This molecule also showed a chromatographic logP in data set [1] (setting [4]) of 1.89. Further, the pest or weed control at 100 ppm was 100% with Sphaerotheca fuliginea (setting [11]); 100% in the data set with Uromyces appendiculatus (setting [13]); 90 to 100% in the data set with Alternaria solani; 89% with Puccinia recondita (setting [15]); 83% in the data set on Septoria tritici (setting [17]); 90 to 100% in the data set with Phakopsora pachyrhizi. Besides, the values for the pest or weed control at 100 ppm with Venturia inaequalis, in the data set with Botrytis cinerea (read-out: Efficacy in %) and in the data set with Pyrenophora teres (read-out: Efficacy in %) were 90 to 100%, 100% and 57%, respectively.

On to `C#Cc1cncn1CC(O)(Cc1ccccc1Cl)C1(Cl)CC1` (stereo not drawn) [Example I-38], for which the pest or weed control at 500 ppm in the data set with Fusarium culmorum lay in the range of 80 to 89%; in the data set with Sphaerotheca fuliginea (setting [5]), 90 to 100%; in the data set on Uromyces appendiculatus (setting [6]) it was 90 to 100%; in the data set with Pyricularia oryzae it was 90 to 100%; in the data set on Puccinia recondita (setting [8]), 80 to 89%; in [2], 90 to 100%. In addition, the pest or weed control at 500 ppm with Septoria tritici (setting [8]) was 90 to 100%; with Leptosphaeria nodorum, 80 to 89%; in data set [3] it was 90 to 100%; in the data set on Botrytis cinerea (setting [9]) it was 90 to 100%; in the data set with Pyrenophora teres (setting [10]), 80 to 89%. In data set [1] (setting [4]), the chromatographic logP turned out to be 2.09. Besides, the pest or weed control at 100 ppm in the data set on Alternaria solani, in the data set with Phakopsora pachyrhizi and in the data set with Venturia inaequalis was 90 to 100% each time.

For the molecule `OC(Cc1ccccc1)(Cn1cncc1Cl)C1(Cl)CC1` (stereo not drawn) [Example I-39], the pest or weed control at 500 ppm with Fusarium culmorum was 90 to 100%; with Sphaerotheca fuliginea (setting [5]), 90 to 100%; in the data set with Uromyces appendiculatus (setting [6]), 90 to 100%; with Pyricularia oryzae, 70 to 79%; in the data set on Puccinia recondita (setting [8]) it was 90 to 100%; in data set [2] it was 90 to 100%. Moreover, the pest or weed control at 500 ppm in the data set on Septoria tritici (setting [8]) is 90 to 100%; in the data set on Leptosphaeria nodorum it was 70 to 79%; in the data set on Fusarium graminearum, 90 to 100%; in data set [3], 70 to 79%; in the data set with Botrytis cinerea (setting [9]), 90 to 100%; in the data set with Pyrenophora teres (setting [10]), 90 to 100%. The molecule also displayed a chromatographic logP in data set [1] (setting [4]) of 2.04. The pest or weed control at 100 ppm with Alternaria solani and in the data set with Phakopsora pachyrhizi was 90 to 100% in each case.

With `N#Cc1cncn1CC(O)(Cc1cccc(F)c1F)C1(F)CC1` (stereo not drawn) [Example I-95], the pest or weed control at 500 ppm in the data set on Fusarium culmorum fell in the range of 90 to 100%; with Sphaerotheca fuliginea (setting [5]), 90 to 100%; in the data set on Uromyces appendiculatus (setting [6]) it was 90 to 100%; in the data set on Pyricularia oryzae, 70 to 79%; in the data set on Puccinia recondita (setting [8]), 90 to 100%; in [2] it was 90 to 100%. Also, the pest or weed control at 500 ppm in the data set on Septoria tritici (setting [8]) was in the range of 90 to 100%; with Leptosphaeria nodorum it was 80 to 89%; with Fusarium graminearum it was 90 to 100%; in data set [3], 90 to 100%; in the data set on Pyrenophora teres (setting [10]) it was 80 to 89%. Further, the chromatographic logP in data set [1] (setting [4]) came to 2.37. Moreover, the pest or weed control at 100 ppm fell in the range of 90 to 100% with Alternaria solani, 90 to 100% in the data set on Phakopsora pachyrhizi and 80 to 89% with Venturia inaequalis.
